Laboratory results as given in patent US6331565A, “Dicaffeoylquinic acid for treating hepatitis B and the diseases associated with retrovirus, and the new caffeoylquinic acid derivatives” (Institute of Radiation Medicine Academy of Military Medical …, priority 1996, dated 2001).
Entries after “also recorded” stand apart in the source; their conditions may differ. Like-named read-outs stand apart in the source and are kept apart here.

Legend:
HIV-1 = assay: microbe, parasite or virus in culture; details: Human immunodeficiency virus 1, MT4, in Homo sapiens, 168 h
Method: (§1) A human T-cell leukemia cell line. MT4 cells, was used in this study. It was maintained in RPMI-1640 medium supplemented with 10% FCS. 100 U/ml of penicillin, and 100 μg/ml of streptomycin at 37° C. in a humidified atmosphere of 5% CO2. Cell cultures were split into fresh medium every 4 days.
HIV-1 virus was propagated in MT4 cells. The cell-free supernatants of HIV-1 infected MT4 cell culture were used as virus stocks and frozen at -80° C. until used. The 50% tissue culture infected dose (TCID50) of the cell-free virus stock was determined by end-point titration with MT4 cells in 96-well microdilution plates.
(§2) After 4 h, 100 μl of solvent (10% Triton X-100 and 0.4% HCl isopropanol)was added to cultures to solubilizes formazan. After an overnight incubation, the absorbency of each well was measured using a microplate reader (Bio-Rad, model 450) at 560 nm.
(§3) MT4 cells in culture were counted by trypan blue exclusion method. The MT4 cells suspended in a small volume of RPMI-1640 medium without FCS and infected with HIV-1 at 200 TCID50 viruses per 10^6 cells. The mixture of MT4 cells and virus was subsequently incubated at 37° C. in a humidified atmosphere of 5% CO2 for 1 hr to allow virus to adsorbed to cells. Unabsorbed viruses were then removed by washing one with […] of the fresh medium and centrifuged at 1000 rpm for ten minutes. The cells were suspended in the medium and distributed into 12-well microculture plates (10^6 cells/3 ml/well). […] After 4-day incubation at 37° C. in a humidified atmosphere containing 5% CO2 the medium was aspirated and the fresh medium containing the same concentration of drug was added.
After 7-day incubation the viable cells was evaluated by MTT method as described above.

HBV DNA replication = details: FIG. 1; 15.625-250 ug/ml
Method: Hep G2 2.2.15 cell lines were maintained in DMEM supplemented with 10% fetal calf serum (FCS) and 100 units.ml^-1 of penicillin and streptomycin, 380 μg.ml^-1 of G418 in a humidified atmosphere containing 5% CO2 at 37° C. The cultures were passenged by trypsinization every 4 days. For bioassays cells were plated in 24-well plates at a density of 1.0×10^5 cells/well. Two-day-old cultures were treated with various concentrations of drug in DMEM containing 10 FCS. The drug was left in the medium for 4 days, and then the medium was aspirated and the fresh medium containing the same concentration of drug was added. At the end of three 4-day periods, the cells were harvested. The aliquot of the culture medium was used for the estimation of the HBV surface antigen (HBsAg) and HBV e antigen (HBeAg).
DNA extraction in 2.2.15 cells: Total DNA was isolated from 2.2.15 cells, cells was washed in PBS and lysed in a solution containing 50 mmol.l^-1 Tris-HCl (pH 7.5). 10 mmol.l^-1 EDTA. 1% SDS and 50 μg.ml^-1 of proteinase K (Sigma). After incubation at 37° C. for 4 h, total DNA was extracted in phenol-chloroform-isoamyl alcohol (25:24:1) followed by two extractions with chloroform-isoamyl alcohol. The DNA was precipitated with 1/10 vol NaOAc and 2.5 vol ethanol overnight at -70° C. […]

MT4 cells = assay: Cytotoxicity in uninfected MT4 cells (MTT); format: cell-based, human; details: 1000 μg.ml^-1, MTT
Method: as §1, §2

2.2.15 cells = assay: Cytotoxicity in 2.2.15 cells (MTT); format: cell-based
Method: The cultures were passenged by trypsinization every 4 days.
The viability of cells was determined by MTT.

[1] = Tolerance and general health in ducks; details: duck, in vivo; preliminary results; read-out: maximal tolerance dose in duck
[2] = test system: lymphocyte proliferation induced by Con A; details: mice infected with MuLV
Method: mice. Five-wk-old female C57BL/6 mice were used throughout the experiments. All mice were housed in sterile cages in a room supplied with filtrated air. They were given pelleted food and chlorinated water ad libitum.
Infection with LP-BM5 MuLV. Cell-free supernatants of LP-BM5 MULV were prepared by cocultivating G6 SC-1 clones with normal SC-1 cells for 5 days. Mice were inoculated intraperitoneally with 150 μl of stock solution containing 10^3,4×C plaque-forming units and 10^2,3 Mink-cell focks-forming units per […].
Then, the spleens were collected. Cell suspensions were prepared by repeated passage of whole spleen through a pipette, the capsule and debris were allowed to settle, and the supernatants containing cells were collected and washed twice in PBS. […] Incubation continued for 16 hr, then cells were collected on filter that was determined by a scintillation counter.

HIV-1 RT = test system: HIV-1 RT
Method: as §3
The presence of HIV-1 RT in the supernatants of infected, drug-treated and infected, no drug treated MT4 cell culture was assayed. Cell culture fluids was clarified at 1000 rpm for 10 minutes to remove cellular debris. The supernatant samples (20 μl) in duplicate transferred to 5 ml plastic Falcon tubes, 10 μl of virus solubilization buffer [0.5% Triton X-100 in 0.8 M NaCl, 0.5 mM phenylmethysulfonyfluoride, 20% (v/v) glycerol and 50 mM Tris-HCl, pH 7.8] were then added to solubilize the viral particles in the supernatant samples and to release RT located in the viral core. 170 μl of reaction mixture (cocktail I) [52 mM Tris-HCl (pH 7.8), 10 mM MgCl2, 2 mM dithiothreitol, 5 μg of poly(rA)-oligo(dT)per ml. 83 μg of dATP per ml, and 3 μCi of [^3 H]TTP per ml] was then added and incubated at 37° C. for 2 hr. The incorporation of [^3 H]TTP into DNA with poly(rA)-olgio(dT) template primer by viral RT was assessed by trichloroacetic (TCA) precipitation and filtered over a […] diameter glass fiber filter. […] of cold 10% TCA was added to precipitate DNA. The precipitate DNA was then collected on the filters in a Millipore sampling manifold, and was washed with additional 5 volumes of 5% TCA and 2 volumes of 70% ethanol. Radioactivity of the DNA on the filters was determined by a scintillation counter.

Q: Which inhibition at 1.56 µg/mL (HIV-1; read-out: Inhibit rate (%), 1.56 μg/ml, 1000 TCID50 (first column pair), 7 days) does the source give for `O=C(/C=C/c1ccc(O)c(O)c1)OC1CC(OC(=O)/C=C/c2ccc(O)c(O)c2)(C(=O)O)CC(O)C1O` (centres unmarked) [Compound A, 1,5-di-O-caffeoylquinic acid] here?
A: 7.2%

Q: What about the inhibition at 1.56 µg/mL (HIV-1; read-out: Inhibit rate (%), 1.56 μg/ml, 1000 TCID50 (second column pair), 7 days) of the same compound?
A: 8.1%

Q: What about the inhibition at 3.12 µg/mL (HIV-1; read-out: Inhibit rate (%), 3.12 μg/ml, 1000 TCID50 (first column pair), 7 days) of the same compound?
A: 21.1%

Q: What about the inhibition at 3.12 µg/mL (HIV-1; read-out: Inhibit rate (%), 3.12 μg/ml, 1000 TCID50 (second column pair), 7 days) of the same compound?
A: 19%

Q: What about the inhibition at 6.25 µg/mL (HIV-1; read-out: Inhibit rate (%), 6.25 μg/ml, 1000 TCID50 (first column pair), 7 days) of the same compound?
A: 40%

Q: What about the inhibition at 6.25 µg/mL (HIV-1; read-out: Inhibit rate (%), 6.25 μg/ml, 1000 TCID50 (second column pair), 7 days) of the same compound?
A: 44.3%

Q: What about the inhibition at 12.5 µg/mL (HIV-1; read-out: Inhibit rate (%), 12.5 μg/ml, 1000 TCID50 (first column pair), 7 days) of the same compound?
A: 55%

Q: And the inhibition at 12.5 µg/mL (HIV-1; read-out: Inhibit rate (%), 12.5 μg/ml, 1000 TCID50 (second column pair), 7 days)?
A: 56.5%

Q: And the inhibition at 25 µg/mL (HIV-1; read-out: Inhibit rate (%), 25 μg/ml, 1000 TCID50 (first column pair), 7 days)?
A: 69.9%

Q: What about the inhibition at 25 µg/mL (HIV-1; read-out: Inhibit rate (%), 25 μg/ml, 1000 TCID50 (second column pair), 7 days) of the same compound?
A: 63.7%

Q: And the inhibition at 50 µg/mL (HIV-1; read-out: Inhibit rate (%), 50 μg/ml, 1000 TCID50 (first column pair), 7 days)?
A: 74.8%

Q: What about the inhibition at 50 µg/mL (HIV-1; read-out: Inhibit rate (%), 50 μg/ml, 1000 TCID50 (second column pair), 7 days) of the same compound?
A: 60.6%

Q: What about the inhibition at 100 µg/mL (HIV-1; read-out: Inhibit rate (%), 100 μg/ml, 1000 TCID50 (first column pair), 7 days) of the same compound?
A: 61.5%

Q: And the inhibition at 100 µg/mL (HIV-1; read-out: Inhibit rate (%), 100 μg/ml, 1000 TCID50 (second column pair), 7 days)?
A: 57.7%

Q: What about the “inhibition of HBV DNA replication” value (HBV DNA replication) of the same compound?
A: inhibit HBV DNA replication in a dose dependent manner

Q: And the “cytotoxicity to MT4 cells” value (MT4 cells)?
A: markedly cytotoxic

Q: What about the “toxicity to 2.2.15 cells” value (2.2.15 cells; 1.0 μg.ml^-1) of the same compound?
A: did not show toxicity

Q: What about the “harmful effects on 2.2.15 cells” value (2.2.15 cells; 500 μg/ml) of the same compound?
A: no obvious harmful effects

Q: And the MTD [1]?
A: > 4000 mg/kg

Q: And the “proliferation of lymphocyte induced by Con A” value [2]?
A: enhance the proliferation of lymphocyte induced by Con A in a degree near to that of AZT; also recorded: enhance the proliferation of lymphocyte of mice infected with MuLV

Q: What about the “IC50, RT in MT4 cells infected with HIV” value (HIV-1 RT) of the same compound?
A: 17.1 µg/mL

Q: What about the “Inhibitory rate(%)” value (HIV-1 RT; 1 μg/ml) of the same compound?
A: 22.8 ± 1.9%

Q: And the cpm (HIV-1 RT; 1 μg/ml)?
A: 6051 ± 91 cpm

Q: And the “Inhibitory rate(%)” value (HIV-1 RT; 10 μg/ml)?
A: 45.4 ± 0.8%

Q: What about the cpm (HIV-1 RT; 10 μg/ml) of the same compound?
A: 4283 ± 89 cpm

Q: What about the “Inhibitory rate(%)” value (HIV-1 RT; 100 μg/ml) of the same compound?
A: 68.7 ± 0.5%

Q: What about the cpm (HIV-1 RT; 100 μg/ml) of the same compound?
A: 2456 ± 54 cpm

Q: And the “Inhibitory rate(%)” value (HIV-1 RT; 1000 μg/ml)?
A: 80.5 ± 1.5%

Q: And the cpm (HIV-1 RT; 1000 μg/ml)?
A: 1528 ± 89 cpm
